Tests used:
mice [1] = assay: survival rate of mice after multiple administrations of peptide; assay type: in vivo
Excerpt: (§1) Other characteristics and advantages of the invention will become apparent from the example which follows relating to the preparation of the modified peptide and to the study of its activity against an autoimmune disease. Systemic lupus presents an easy clinical symptom to follow because of the large urinary protein excretion that accompanies the disorder that results from an associated renal condition, glomerulonephritis. Levels of protein secretion were followed to assess the effectiveness of the modified peptide in addressing the underlying autoimmune disorder.
(§2) The specific peptide […] (SEQ ID NO: 1), which is a 21-amino acid sequence of the 70 kDa snRNP protein corresponding to residues 131-151, was synthesized in its phosphorylated form (in the 10 position—P10). This self-protein, which is normally present in each cell, is recognized by T-cells and antibodies from lupus patients and mice as an antigen toward which the immune system is reacting, generating a so-called autoimmune reaction.

CD4+ T cells = assay: production of IL-2 (interluekin-2) by CD4+ T cells; assay type: cell-based, mice
Excerpt: as §2

mice [2] = assay: urine protein excretion in treated mice; assay type: in vivo
Excerpt: as §1, §2

## RIHMVYSKRSGKPRGYAFIEY (listed as Homo sapiens) [natural (non-phosphorylated) peptide, reference compound]
Mice [1]; mice, after administration of the peptide
  improvement in the survival rate (in words): unable to improve significantly the survival rate

## RIHMVYSKRSGKPRGYAFIEY (lysine acetylation, position unspecified; listed as Homo sapiens) [acetylated peptide]
Mice [1]; preliminary data, compared with the phosphorylated peptide P10
  activity (preliminary data): even stronger activity

## RIHMVYSKRSGKPRGYAFIEY [P10]
Mice [1]; mice, after multiple administrations (similar to a vaccine), compared to 0%
  survival rate: 55%
CD4+ T cells
  production of IL-2 (interluekin-2) by CD4+ T cells: increased significantly
Mice [2]
  urine protein excretion: reduced
